Values of other authors in US20040110696A1, “GENE THERAPY SYSTEM AND METHOD USING ALPHA-MSH AND ITS DERIVATIVES” (priority 2003, published 2004).
Where no end group is shown, it is not given here.

Columns and labels:
[1] = test system: fever; settings: for antipyretic potency: relative to the α-MSH(11-13) sequence; for antipyretic activity: rabbit, in vivo
[2] = test system: inflammation; settings: for anti-inflammatory activity: in vitro and in vivo

8-13 sequence: α-MSH fragment, residues 8-13 (RWGKPV; ends and bridges not checked; UniProt P01189 145-150, looked up, fragment)
antipyretic potency [1]: greater than that of the 11-13 sequence

[Nle^4,D-Phe^7]-α-MSH
potency in reducing fever ([1]; relative to the parent peptide α-MSH): approximately ten times more potent

10-13 sequence: α-MSH(11-13) with glycine added to form the 10-13 sequence (GKPV; ends and bridges not checked; UniProt P01189 147-150, looked up, fragment)
antipyretic potency [1]: slightly decreased potency

9-13 sequence: α-MSH fragment, residues 9-13 (WGKPV; ends and bridges not checked; UniProt P01189 146-150, looked up, fragment)
antipyretic potency [1]: almost devoid of activity

Ac-[D-K11]-α-MSH 11-13-NH2
general potency of α-MSH (11-13) stereochemical analogs ([2]; relative to L-form tripeptide, kind of activity not given, cited Hiltz 1991 anti-inflammatory activity): same general potency as the L-form

lysine-proline-valine [KPV]
antipyretic activity [1]: parallel those of the parent molecule | anti-inflammatory activity [2]: parallel those of the parent molecule

MEHFRWG [α-MSH sequence (4-10)]
antipyretic activity [1]: little | anti-inflammatory activity [2]: little
